According to patent EP4563151A1, “PHARMACEUTICAL COMPOSITION COMPRISING KRAS G12D INHIBITOR” (Jiangsu Hengrui Pharmaceuticals Co., Ltd., priority 2022, dated 2024):

Columns and labels:
[1] = tested on: AGS cells; test: Inhibition of 3D proliferation of AGS cells (CellTiter-Glo 3D); assay type: cell-based; settings: Homo sapiens, 120 h incubation
Protocol: (§1) The inhibitory effect of the compound represented by formula I on the KRAS target was evaluated by assessing the inhibitory effect of the compound represented by formula I on the 3D proliferation of GP2d and AGS cells.
(§2) AGS cells (Nanjing Cobioer, CBP60476) were cultured in a complete culture medium, namely an RPMI1640 medium (Hyclone, SH30809.01) containing 10% fetal bovine serum (Corning, 35-076-CV). On the first day of the experiment, the AGS cells were seeded into a 96-well low-adsorption plate (Corning, CLS7007-24EA) with a complete culture medium at a density of 1000 cells/well, with each well containing 90 µL of a cell suspension. The plate was centrifuged at 2000 rpm for 5 min at room temperature and then incubated overnight in a cell incubator at 37 °C with 5% CO2.
(§3) The next day, the test compound, serially diluted in a complete culture medium, was added at 10 µL/well. The final concentrations of the compound for GP2d cells were 9 concentration points obtained by 3-fold serial dilution from 1 µM, and the final concentrations of the compound for AGS cells were 9 concentration points obtained by 3-fold serial dilution from 10 µM. A blank control containing 0.5% DMSO was set for both types of cells. The plates were incubated in a cell incubator at 37 °C with 5% CO2 for 120 h. […] The luminescence signal values were obtained using a multimode microplate reader (PerkinElmer, ENVISION). […]

[2] = tested on: GP2d cells; test: Inhibition of 3D proliferation of GP2d cells (CellTiter-Glo 3D); assay type: cell-based; settings: 120 h incubation
Protocol: as §1
as §2, with “GP2d” for “AGS”, “CBP60010)” for “CBP60476)”, “a DMEM/high glucose culture” for “an RPMI1640”, “SH30243.01)” for “SH30809.01)”
as §3, with “cells.” for “cells. The plates were incubated in a cell incubator at 37 °C with 5% CO2 for 120 h.”

[3] = tested on: ERK phosphorylation in AGS cells; test: Inhibition of ERK phosphorylation in AGS cells (HTRF method); assay type: cell-based; settings: Homo sapiens, 1 h incubation with compound, phosphorylated ERK/total ERK ratio
Protocol: In the experiment, the inhibitory effect of the compound represented by formula I on the KRAS target was evaluated by assessing the inhibitory effect of the compound on ERK phosphorylation in cells and based on the IC50.
AGS cells (Nanjing Cobioer, CBP60476) were cultured in an RPMI1640 (Hyclone, SH30809.01) complete culture medium containing 10% fetal bovine serum. On the first day of the experiment, the AGS cells were seeded into a 96-well plate with a complete culture medium at a density of 40,000 cells/well, with each well containing 190 µL of a cell suspension. The plate was incubated overnight in a cell incubator at 37 °C with 5% CO2.
The next day, the test compound, serially diluted in a complete culture medium, was added at 10 µL/well. The final concentrations of the compound were 9 concentration points obtained by 5-fold serial dilution from 10 µM. A blank control containing 0.5% DMSO was set. The plate was incubated in a cell incubator at 37 °C with 5% CO2 for 1 h. […]
On the third day, the fluorescence values at an excitation wavelength of 337 nm and emission wavelengths of 665 nm and 620 nm were obtained using an ENVISION multimode microplate reader (PerkinElmer, ENVISION).
The IC50 value for the inhibitory activity of the compound was calculated using Graphpad Prism software based on the compound concentration and the phosphorylated ERK/total ERK ratio. […]

[4] = target: KRAS protein subtype G12D (Homo sapiens, UniProt P01116, G12D); test: Affinity for KRAS protein subtype G12D by SPR method (Biacore 8K); assay type: binding; settings: biotinylated Avi-KRAS-G12D, single-cycle kinetic mode, 1:1 model
KRAS protein subtype G12D, sequence (P01116 1-188 isoform P01116-2 G12D): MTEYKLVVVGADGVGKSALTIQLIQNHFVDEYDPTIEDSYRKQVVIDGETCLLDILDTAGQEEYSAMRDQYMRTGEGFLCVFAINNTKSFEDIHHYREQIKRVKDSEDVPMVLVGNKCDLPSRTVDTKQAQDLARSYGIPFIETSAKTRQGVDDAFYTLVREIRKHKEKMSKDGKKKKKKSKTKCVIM
Protocol: (§4) Biotinylated Avi-KRAS-WT or Avi-KRAS-G12D was diluted to 20 µg/mL with a 1× HBS-P+ (Cat. # BR1006-71) buffer containing 100 mM MgCl2 and then allowed to flow through channel 2 of an SA (Cat. # BR1005-31) biosensor chip for 420 s to obtain a coupling level of approximately 5000-7000 RU. Then samples of the compound were injected sequentially in descending order for 120 s, followed by 720 s of dissociation. The testing was performed using a single-cycle kinetic mode. Reaction signals were detected in real time using a Biacore 8K instrument to obtain association and dissociation curves. After the testing was finished, data analysis was performed using Biacore 8K evaluation software. Data fitting was performed using a 1:1 model, and affinity data were obtained.

[5] = target: KRAS protein subtype WT (Homo sapiens, UniProt P01116); test: Affinity for KRAS protein subtype WT by SPR method (Biacore 8K); assay type: binding; settings: biotinylated Avi-KRAS-WT, single-cycle kinetic mode, 1:1 model
KRAS protein subtype WT, sequence (P01116 1-188 isoform P01116-2): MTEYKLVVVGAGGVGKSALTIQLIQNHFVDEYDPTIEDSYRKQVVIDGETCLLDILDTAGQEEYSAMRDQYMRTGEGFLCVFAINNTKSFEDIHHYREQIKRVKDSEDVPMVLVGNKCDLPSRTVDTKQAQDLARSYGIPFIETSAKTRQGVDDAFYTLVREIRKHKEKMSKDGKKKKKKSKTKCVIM
Protocol: as §4

CCc1c(F)ccc2cc(O)cc(-c3nc4c5c(nc(OC[C@@]67CCCN6C[C@H](F)C7)nc5c3F)N3C[C@H]5CC[C@H](N5)[C@H]3CO4)c12 [Compound represented by formula I, 5-Ethyl-6-fluoro-4-((5aS,6S,9R)-1-fluoro-12-(((2R,7aS)-2-fluorotetrahydro-1H-pyrrolizin-7a(5H)-yl)methoxy)-5a,6,7,8,9,10-hexahydro-5H-4-oxa-3,10a,11,13,14-pentaaza-6,9-methanonaphtho[1,8-ab]heptalen-2-yl)naphthalen-2-ol]
IC50 [1]: 5.8 nM | IC50 [2]: 0.9 nM | IC50 [3]: 0.4 nM | Kd [4]: 0.03 nM | Kd [5]: 1.54 nM
